For 36 compounds, pMIC results are on record in ChEMBL document CHEMBL1148365, “Rational design of new antituberculosis agents: receptor-independent four-dimensional quantitative structure-activity relationship analysis of a set of isoniazid derivatives” (2004).

The test system of this test is Mycobacterium tuberculosis. The test is described as follows: Minimum inhibitory concentration against Mycobacterium tuberculosis var. bovis strain at 310K, with value expressed as pMIC i.e. -log of MIC (ug/mL). It is filed as functional.

Turning to `NNC(=O)c1ccccc1[N+](=O)[O-]`, the pMIC came to 0.52.

`NNC(=O)c1ccncn1` showed a pMIC of 1.7.

Turning to `NNC(=O)c1ccc([N+](=O)[O-])cc1`, the pMIC stood at 1.92.

Compound `NNC(=O)c1c[nH]cn1` gave a pMIC of 2.7.

With `NNC(=O)/C=C/c1ccccc1`, the pMIC was found to be 3.4.

For `NNC(=O)C1CCNCC1`, the pMIC is 0.22.

In turn, `NNC(=O)c1ccnc2ccccc12` displayed a pMIC of 1.1.

The compound `NNC(=O)c1ccc(O)cc1` came in with a pMIC of 1.92.

Compound `NNC(=O)c1ccc(Br)cc1` returned a pMIC of 1.92.

`NNC(=O)c1cccc([N+](=O)[O-])c1` showed a pMIC of 3.22.

In turn, `Cc1ncc(C(=O)NN)c(O)n1` gave a pMIC of 0.4.

Consider `CN(C)C(=O)N1CCC(C(=O)NN)CC1`, for which the pMIC is on record as 0.22.

The compound `COc1cc(C(=O)NN)ccc1O` came in with a pMIC of 1.52.

`NNC(=O)c1cccc(N)c1` gave a pMIC of 2.52.

For the compound `NNC(=O)c1ccncc1N`, the pMIC was 2.82.

`NNC(=O)c1ccc(Cl)cc1` had a pMIC of 2.52.

Take `NNC(=O)c1ccccc1N`: the pMIC was found to be 1.52.

In turn, `NNC(=O)Cc1ccncc1` showed a pMIC of 1.

The compound `NNC(=O)c1ccccn1` had a pMIC of 3.82.

For the compound `NNC(=O)c1cncs1`, the pMIC is given as 2.

`NNC(=O)c1ccnc(F)c1` showed a pMIC of 3.4.

`NNC(=O)c1c[nH]c(S)n1` returned a pMIC of 0.6.

`Cc1cnccc1C(=O)NN`: the pMIC was found to be 0.7.

`NNC(=O)C(O)c1ccccc1` (stereo unspecified) had a pMIC of 1.4.

With `NNC(=O)Cc1ccccc1`, the pMIC is recorded as 1.92.

With `NNC(=O)Cc1ccc(Cl)cc1`, the pMIC is 2.

In turn, `NNC(=O)C1Cc2ccccc2O1` (stereo unspecified) had a pMIC of 0.65.

For the compound `Cn1cncc1C(=O)NN`, the pMIC is 0.52.

Regarding `NNC(=O)c1ccco1`, the pMIC is on record as 4.22.

In turn, `NNC(=O)c1ccnc(Br)c1` yielded a pMIC of 1.82.

In turn, `NNC(=O)c1cscn1` registered a pMIC of 1.82.

With `CN1CCC(C(=O)NN)CC1`, the pMIC is reported as 0.22.

In the case of `NNC(=O)c1ccccc1` [BENZOIC ACID HYDRAZIDE], the pMIC is 3.22.

`NNC(=O)c1ccncc1` [ISONIAZID] returned a pMIC of 4.2.

Consider `NNC(=O)c1cccnc1` [NICOTINIC ACID HYDRAZIDE], for which the pMIC turned out to be 2.7.

In the case of `NNC(=O)c1cnccn1` [PYRAZINE CARBOXYLIC ACID HYDRAZIDE], the pMIC is reported as 2.82.
